What was measured:
NK1 receptors [1] = target: T1, NK1 receptors (Cavia porcellus, UniProt P30547); experiment: NK1-receptor-antagonistic effectiveness in vivo in anesthetized guinea pigs (NKA-induced early hypotension); details: guinea pig
T1 construct: from tissue; host or cells: whole animal: anesthetized Pirbright-White guinea pigs
Excerpt: (§1) 6. Determination of the NK1- and NK2-receptor-antagonistic Effectiveness of the Test Substances In Vivo
(§2) The NK1- and NK2-antagonistic activities of the test substances were investigated in anesthetized guinea pigs in each case after intravenous (=i.v.) and oral (=p.o.) administration in vivo. With the present test model it is possible to detect both NK2-antagonistic effects in three different organ systems (respiratory tracts, colon and circulation) and NK1-antagonistic effects (rapid drop in blood pressure) in an animal simultaneously.
Pirbright-White guinea pigs having a body weight of 500-700 g were anesthetized with ketamine/xylazine (67/13 mg/kg subcutaneously, initial dose, further doses administered as required). […] The animals were artificially ventilated via a tracheal cannula and the respiratory pressure was recorded by a pressure transducer. […] Blood pressure, heart rate, respiratory pressure and colonic pressure were measured continuously for each animal and plotted on a recorder and by a digital data-processing system. […]
(§3) The antagonistic effects of the test substances were then determined as “area under the curve” (“AUC”) over the investigation period after administration of the test substances (1-180 min after administration) and the ED50 values after oral administration obtained therefrom were plotted in Table 7.

NK2 receptors [2] = target: T2, NK2 receptors (Cavia porcellus, UniProt Q64077); experiment: NK2-receptor-antagonistic effectiveness in vivo in anesthetized guinea pigs (NKA-induced late hypotension, bronchoconstriction, colonic motility); details: guinea pig
T2 construct: from tissue; host or cells: whole animal: anesthetized Pirbright-White guinea pigs
T2 sequence (Q64077 1-402): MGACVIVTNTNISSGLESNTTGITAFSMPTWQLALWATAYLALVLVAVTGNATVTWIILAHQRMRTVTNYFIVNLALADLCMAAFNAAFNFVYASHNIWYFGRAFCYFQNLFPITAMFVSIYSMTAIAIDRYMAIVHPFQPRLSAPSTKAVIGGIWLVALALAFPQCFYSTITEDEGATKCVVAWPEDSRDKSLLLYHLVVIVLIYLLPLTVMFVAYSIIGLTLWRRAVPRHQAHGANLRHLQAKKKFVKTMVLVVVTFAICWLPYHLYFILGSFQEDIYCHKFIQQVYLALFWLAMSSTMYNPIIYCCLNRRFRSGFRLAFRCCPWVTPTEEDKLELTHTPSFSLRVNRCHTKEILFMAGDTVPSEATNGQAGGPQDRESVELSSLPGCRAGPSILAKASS
Excerpt: as §1, §2
Pirbright-White guinea pigs having a body weight of 500-700 g were anesthetized with ketamine/xylazine (67/13 mg/kg subcutaneously, initial dose, further doses administered as required). The animals were provided with an intravenous catheter in order to administer the substance and an intra-arterial catheter to measure the blood pressure. The animals were artificially ventilated via a tracheal cannula and the respiratory pressure was recorded by a pressure transducer. A balloon was introduced into the distal colon of the animals for manometric recording of colon motility by a pressure transducer. Blood pressure, heart rate, respiratory pressure and colonic pressure were measured continuously for each animal and plotted on a recorder and by a digital data-processing system. […] The second phase of delayed hypotension (=phase of maximum hypotension after 2-5 min.) on the other hand is mediated via NK2 receptors, since they can be blocked by specific NK2 receptor antagonists.
These ED50 values obtained from cumulative dose effect curves are plotted in Table 6.
as §3

human NK1 receptor [3] = target: T3, human NK1 receptor (Homo sapiens, UniProt P25103); experiment: Binding power to NK1 receptors in vitro ([3H]-Substance P displacement, CHO cell membranes); design: expressed in transfected cells; host or cells: CHO cells (membrane preparation); details: human NK1 receptor in CHO membranes, ligand [3H]-Substance P; for Ki: read-out: pKi (NK1) (converted)
T3 sequence (P25103 whole entry): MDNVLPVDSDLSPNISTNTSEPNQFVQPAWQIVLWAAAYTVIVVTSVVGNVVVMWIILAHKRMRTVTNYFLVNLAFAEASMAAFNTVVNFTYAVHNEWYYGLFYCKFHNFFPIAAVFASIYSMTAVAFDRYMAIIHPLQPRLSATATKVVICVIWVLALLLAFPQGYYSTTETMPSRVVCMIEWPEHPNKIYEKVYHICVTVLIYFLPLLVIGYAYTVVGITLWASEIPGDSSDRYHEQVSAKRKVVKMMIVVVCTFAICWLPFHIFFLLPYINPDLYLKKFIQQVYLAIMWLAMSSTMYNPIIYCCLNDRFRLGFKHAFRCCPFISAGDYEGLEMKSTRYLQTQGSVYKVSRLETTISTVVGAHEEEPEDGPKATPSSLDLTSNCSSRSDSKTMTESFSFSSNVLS
Experimental: 1. Determination of the Binding Power of the Test Substances to NK1 Receptors In Vitro.
Affinity of the test substances to human NK1 receptors was measured in vitro.
The receptor binding studies were performed with [^3H]-Substance P as ligand. For the binding test, different samples of a membrane preparation of CHO cells (=egg cells of the Chinese hamster, […]), which express the human NK1 receptor (“Accession Number” of the associated nucleic acid sequence=M74290; “Accession Number” of the associated protein sequence=P25103; cf. Takeda, Y.; Chou, K. B., Takeda, J.; Sachais, B. S. and Krause, J. E; Biochemical and Biophysical Research Communications, 179(3) (1991) 1232-1240), were incubated with a solution of the marked ligand, with the incubation mixtures containing no test substance or additions of different concentration of test substance. Then, separation of bound and free ligands was performed in each of the samples with the aid of glass-fiber filtration. The fraction remaining in the filter was washed several times with buffer solution and then the radioactivity of the fraction remaining in the filter was measured using a beta scintillation counter.
For the compounds of Examples 1 to 14, that concentration which effects half maximum displacement of the bound ligand was determined as IC50 of the respective test substance. From this, the corresponding inhibition constant (Ki value) of the test substance was calculated, and was stated as the negative common logarithm of the Ki value (=pKi value) The pKi value is a measurement of the affinity of the test substances to human NK1 receptors.

human NK2 receptor [4] = target: T4, human NK2 receptor (Homo sapiens, UniProt P21452); experiment: Binding power to NK2 receptors in vitro ([3H]-SR 48968 displacement, CHO cell membranes); design: expressed in transfected cells; host or cells: CHO cells (membrane preparation); details: human NK2 receptor in CHO membranes, ligand [3H]-SR 48968, 90 min incubation; for Ki: read-out: pKi (NK2) (converted)
T4 sequence (P21452 1-398): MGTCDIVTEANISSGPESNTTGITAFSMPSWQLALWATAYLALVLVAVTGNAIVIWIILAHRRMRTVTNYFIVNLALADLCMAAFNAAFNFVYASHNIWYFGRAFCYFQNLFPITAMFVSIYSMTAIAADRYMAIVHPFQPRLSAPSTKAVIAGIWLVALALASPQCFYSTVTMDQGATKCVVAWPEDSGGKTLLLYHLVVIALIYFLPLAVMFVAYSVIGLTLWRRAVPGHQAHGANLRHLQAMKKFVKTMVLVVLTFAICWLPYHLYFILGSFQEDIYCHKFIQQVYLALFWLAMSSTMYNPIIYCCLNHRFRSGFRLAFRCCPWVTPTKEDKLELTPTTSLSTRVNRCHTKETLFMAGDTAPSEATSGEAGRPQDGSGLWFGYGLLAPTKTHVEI
Experimental: The affinity of the test substances to human NK2 receptors was measured in vitro. The ability of the test substances to displace the selective NK2 receptor antagonist SR 48968 (=saredutant) used as reference ligand from its corresponding bond was determined.
The receptor binding studies were carried out with radioactively marked [^3H]-SR 48968 (from Amersham) as ligand. For the binding test, different samples of a membrane preparation of CHO cells (=egg cells of the Chinese hamster, […]), which express the human NK2 receptor (for preparation, see N. P. Gerard et al., Journal of Biological Chemistry 265/33 (1990) 20455-20462), were incubated for 90 minutes (=min.) with a solution of the marked ligand, with the incubation mixtures containing no test substance or additions of different concentrations of test substance. Then in each case the membrane-bound ligands in the samples were separated from free ligands by filtration. The fraction remaining in the filter was washed several times with buffer solution, before its radioactivity was measured using a liquid scintillation counter. That concentration which effects half-maximum displacement of the bound reference ligand was determined as IC50 of the respective test substance. The inhibition constant (Ki value) of the test substance was calculated from the respective IC50 value, and was stated as the negative logarithmized value thereof (pKi).
If several measurements were performed, the average thereof was listed each time. The pKi value is a measurement of the affinity of the test substances to human NK2 receptors.

human NK2 receptor [5] = target: T4, human NK2 receptor; experiment: Functional cellular test, Ca2+ measurement using FLIPR, NK2 (NKA stimulated CHO cells)
Experimental: (§4) Functional Cellular Tests of the NK1- and NK2-antagonistic Effects
(§5) Functional cellular tests of the antagonistic effect of the compounds of the present invention on the human tachykinin receptors were performed in CHO cells expressing the recombinant human NK1 or NK2 receptor. In these tests the inhibition of ligand induced increase in mobilization of intracellular calcium and the inhibition of ligand induced phosphorylation of MAPK were determined, which can be used as a measure of functional activity of tachykinin-antagonists. Additionally, the antagonistic properties of reference compounds on the different tachykinin receptors were characterized for comparison.
(§6) The effects of test compounds were assessed using Chinese hamster ovary (CHO) fibroblast cells, stably expressing cloned human NK1 or NK2 receptors. The NK receptor in coupled to Gq. The activation of the Gq protein by ligand binding to the receptor leads to a mobilization of intracellular calcium and phosphorylation of MAPK. Both systems were used to determine functional effects of the test compounds.
(§7) Ca^2+Measurements Using FLIPR for NK1 and NK2 Activity
(§8) For tests, cell were seeded 24 hours prior to the experiment into black 96-well microplates. The cell density was 2.2×10^4 cells/well. All steps were done under sterile conditions. In order to observe changes in intracellular calcium levels, cells were loaded with a calcium-sensitive dye. This dye (FLUO-4, from Molecular Probes) excites at 488 nm, and emits in the 560 nm range, only if a complex with calcium is formed. For the dye loading the growth-medium was aspirated out of the well without disturbing the confluent cell layer and 100 μl loading medium (HBSS, 4 μM FLUO-4, 0.005% (w/v) pluronic acid, 2.5 mM probenecid, 20 mM HEPES, pH 7.4) was dispensed into each well using an automatic pipettor system (Multidrop, Labsystems). Pluronic acid was added to increase dye solubility and dye uptake into the cells, whereas probenecid, an anion exchange inhibitor, was added to the loading medium to increase dye retention in the cells. The cells were incubated in a 5% CO2 incubator at 37° C. for 40 minutes. After dye loading, the cells were washed three times with wash-buffer (HBSS, 2.5 mM probenecid, 20 mM HEPES, pH 7.4) to reduce basal fluorescence. In the last washing step the buffer was aspirated and replaced with 100 μl washing buffer. […] The FLIPR setup parameters were set to 0.4 sec exposure length, filter 1, 50 μl fluid addition, pipettor height at 125 μl, dispense speed 40 μl/sec without mixing. Maximal fluorescence changes were obtained using the statistic function of the FLIPR software, and data plotted using GraphPad Prism 4. All points were expressed as a percentage inhibition of the control agonist. IC50 values were determined using sigmoidal dose-response curve fitting.

human NK1 receptor [6] = target: T3, human NK1 receptor; experiment: Functional cellular test, Ca2+ measurement using FLIPR, NK1 (substance P stimulated CHO cells)
Experimental: as §4, §5, §6, §7, §8

NK1 receptors [7] = target: T1, NK1 receptors; experiment: Functional NK1 antagonism on isolated guinea pig aorta rings (inhibition of Substance P-induced relaxation); details: phenylephrine tone, 0.01 μmol Substance P
Experimental: 3. Determining of the Functional NK1 Antagonism of the Test Substances on Isolated Guinea Pig Tissue In Vitro
The action antagonistic to NK1 receptors of the test substances was measured in vitro on isolated ring preparations, kept in an oxygenated nutrient solution, of the aortas of Pirbright-White guinea pigs.
In order to measure the contraction of the vessel muscles, the preparations were fixed to a hook, joined by a thread to a force measuring apparatus and the contractions were recorded in each case on a plotter. The aorta preparations were tonicized with phenylephrine. […] The relaxations before and after the administration of the test substance were qualified in percent. The effective concentration of the half maximum inhibition of the relaxation of the tone (=EC50) was calculated. The negative common logarithm of the EC50 value (=pEC50) was given as characteristic variable. The pEC50 value is a measurement of the functional effectiveness of the test substances on NK1 receptors.

NK2 receptors [8] = target: T2, NK2 receptors; experiment: Functional NK2 antagonism on isolated guinea pig gall-bladder (inhibition of NKA-induced contraction); details: NKA 0.1 μmol/l, two hours' incubation, IC50 in mol/l
Experimental: 4. Determination of the Functional […] of the Test Substances on Isolated Guinea Pig Tissue In Vitro.
The NK2 receptor-antagonizing action of the test substances was determined on isolated gall-bladder preparations from Pirbright-White guinea pigs, held in an oxygen-saturated nutrient solution. To this end, the preparations were fastened on one hand in the nutrient solution to organ holders and on the other hand on a force meter by a thread.
The concentration of the test substances was increased iteratively in the subsequent experiments as a function of the result in logarithmic whole or half steps, until at least one concentration above or below 50% inhibition of contraction was determined (up to at most 10^−5 mol/l). For each concentration, the average value of inhibition of contraction was calculated from 2 to 4 preparations. In each case, the concentration of half-maximum inhibition (IC50) per test substance was calculated as characteristic variable. In each case the logarithmized value of the IC50 per test substance is given as plC50 in [mol/l].

[9] = i.v., NKA stimulus 1 min after dosing

T1 sequence (P30547 whole entry): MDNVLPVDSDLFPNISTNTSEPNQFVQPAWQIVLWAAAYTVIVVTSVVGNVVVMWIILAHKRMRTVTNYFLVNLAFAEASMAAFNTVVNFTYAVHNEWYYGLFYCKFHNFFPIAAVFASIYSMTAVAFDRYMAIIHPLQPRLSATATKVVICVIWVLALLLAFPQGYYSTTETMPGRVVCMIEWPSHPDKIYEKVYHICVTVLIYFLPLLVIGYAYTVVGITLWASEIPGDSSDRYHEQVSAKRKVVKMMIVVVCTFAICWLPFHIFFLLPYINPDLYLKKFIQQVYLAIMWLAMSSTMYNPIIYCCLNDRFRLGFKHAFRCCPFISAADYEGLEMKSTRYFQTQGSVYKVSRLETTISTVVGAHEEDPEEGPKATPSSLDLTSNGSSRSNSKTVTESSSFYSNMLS

Row | SMILES | Ki (human NK1 receptor [3]) [nM] | Ki (human NK2 receptor [4]) [nM] | Kb (human NK2 receptor [5]) [nM] | Kb (human NK1 receptor [6]) [nM] | other results
1 | CN(C[C@@H](CCN1CCN([C@@H](c2ccco2)[C@H](O)CO)CC1)c1ccc(Cl)c(Cl)c1)C(=O)c1cc(C#N)cc2ccccc12 [Compound 1, 3-cyano-N-[(2S)-2-(3,4-dichlorophenyl)-4-{4-[(1R,2S)-1-(2-furyl)-2,3-dihydroxy-propyl]-piperazin-1-yl}butyl]-N-methyl-1-naphthamide] |  |  |  |  | oral activity as NK1 receptor antagonist (in words) (NK1 receptors [1]; oral): active orally; oral activity as NK2 receptor antagonist (in words) (NK2 receptors [2]; oral): active orally; melting point: 140 to 142 °C
2 | CN(CC(CCN1CCN(C(c2ccco2)C(O)C(O)CO)CC1)c1ccc(Cl)c(Cl)c1)C(=O)c1cc(C#N)cc2ccccc12 (centres unmarked) [Compound 7] |  |  |  |  | ED50 iv after 1 min (cumulative), NK1 (early hypotension) (NK1 receptors [1]; [9]): 0.052 µmol/kg; ED50 iv after 1 min (cumulative), NK2 (bronchoconstriction) (NK2 receptors [2]; [9]): 0.207 µmol/kg; ED50 iv after 1 min (cumulative), NK2 (colonic motility) (NK2 receptors [2]; [9]): 0.309 µmol/kg; ED50 iv after 1 min (cumulative), NK2 (late hypotension) (NK2 receptors [2]; [9]): 0.338 µmol/kg; pKi (NK1) (human NK1 receptor [3]): 8.3; pKi (NK2) (human NK2 receptor [4]): 7.4; pA2 (NK2) (human NK2 receptor [5]; CHO cells with human NK2 receptor, FLIPR Ca2+, NKA 10^-7 M): 8.1; pA2 (NK1) (human NK1 receptor [6]; CHO cells with human NK1 receptor, FLIPR Ca2+, substance P 10^-8 M): 8.8
3 | CN(CC(CCN1CCN(C(c2ccsc2)C(O)C(O)C(O)CO)CC1)c1ccc(Cl)c(Cl)c1)C(=O)c1cc(C#N)cc2ccccc12 (centres unmarked) [Compound 5] |  |  |  |  | pEC50 (NK1 receptors [7]): 10.0; pIC50 (NK2 receptors [8]): 7.5; pKi (NK1) (human NK1 receptor [3]): 8.9; pKi (NK2) (human NK2 receptor [4]): 7.3

Second part, led by results:

Row | Ki (human NK1 receptor [3]) [nM] | Ki (human NK2 receptor [4]) [nM] | Kb (human NK2 receptor [5]) [nM] | Kb (human NK1 receptor [6]) [nM] | SMILES | other results
4 | 7.94 | 100 | 39.8 | 10 | CC(=O)OCC(O)C(Cc1ccccc1)N1CCN(CCC(CN(C)C(=O)c2cc(C#N)cc3ccccc23)c2ccc(Cl)c(Cl)c2)CC1 (centres unmarked) [Compound 26] | 
5 | 10 | 31.6 | 15.8 | 7.94 | CN(CC(CCN1CCN(C(Cc2ccccc2)C(O)CO)CC1)c1ccc(Cl)c(Cl)c1)C(=O)c1cc(C#N)cc2ccccc12 (centres unmarked) [Compound 24] | 
6 | 6.31 | 25.1 | 7.94 | 0.631 | CC(=O)OC[C@@H](OC(C)=O)[C@H](c1ccco1)N1CCN(CC[C@H](CN(C)C(=O)c2cc(C#N)cc3ccccc23)c2ccc(Cl)c(Cl)c2)CC1 [Compound 27, (2S,3R)-2-(acetyloxy)-3-{4-[(3S)-4-[3-cyano-1-naphthoyl)(methyl)amino]-3-(3,4-dichlorophenyl)butyl]piperazin-1-yl}-3-(2-furyl)propyl acetate] | 
7 | 1 | 794 | 0.794 | 0.501 | COc1ccc([C@@H]([C@H](O)CO)N2CCN(CC[C@H](CN(C)C(=O)c3cc(C#N)cc4ccccc34)c3ccc(Cl)c(Cl)c3)CC2)cc1 [Compound 16, 3-cyano-N-[(2)-2-(3,4-dichlorophenyl)-4-{4-[(1S,2S)-2,3-dihydroxy-1-(4-methoxyphenyl)propyl]piperazin-1-yl}butyl]-N-methyl-1-naphthamide] | 
8 |  |  | 10 |  | CN(C[C@@H](CCN1CCN([C@@H](c2cccs2)[C@H](O)CO)CC1)c1ccc(Cl)c(Cl)c1)C(=O)c1cc(C#N)cc2ccccc12 [Compound 9, 3-cyano-N-[(2S)-2-(3,4-dichlorophenyl)-4-{4-[(1R,2S)-2,3-dihydroxy-1-(2-thienyl)propyl]piperazin-1-yl}butyl]-N-methyl-1-naphthamide] | 

Reference: patent US7592344B2, “NK1 and NK2-antagonists and compositions and methods of using the same” (Solvay Pharmaceuticals GmbH, priority 2005, dated 2009)
